According to patent US9480259B2, “Pyrazolopyrans having herbicidal and pharmaceutical properties” (BASF SE, priority 2012, dated 2016):

Target: Arabidopsis thaliana SHMT
Experiment: SHMT activity assay (ED50 SHMT), coupled with N5,N10-CH2-THF dehydrogenase, NADH at 340 nm
Format: biochemical
Conditions: Table 2, Arabidopsis thaliana SHMT enzyme assay; values given as upper bounds
How it was run: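 His-tagged SHMT purified on Ni-NTA. NADH formation followed at 340 nm for 30 min; ED50 from inhibition of initial velocity.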

SMILES | EC50 [nM]
Cc1cccc(Oc2cc(Cl)cc(C3(C4CCC4)C(C#N)=C(N)Oc4[nH]nc(C)c43)c2)c1 (stereo not shown) [Compound 2.239] | < 100
COc1ccc(C2(C3CCCC3)C(C#N)=C(N)Oc3[nH]ncc32)cc1Cl (stereo not shown) [Compound 2.254] | < 10000
N#CC1=C(N)Oc2[nH]ncc2C1(c1cc(Cl)cc(Cl)c1)C1CCCC1 (stereo not shown) [Compound 2.256] | < 10000
Cc1n[nH]c2c1C(c1cc(N3CCOCC3)cc(C(F)(F)F)c1)(C1CCC1)C(C#N)=C(N)O2 (stereo not shown) [Compound 2.271] | < 10
Cc1n[nH]c2c1C(c1ccc(C(F)(F)F)c(C(F)(F)F)c1)(C1CCC1)C(C#N)=C(N)O2 (stereo not shown) [Compound 2.272] | < 10
Cc1n[nH]c2c1C(c1cc(Cl)c(Cl)c(C(F)(F)F)c1)(C1CCC1)C(C#N)=C(N)O2 (stereo not shown) [Compound 2.273] | < 10
N#CC1=C(N)Oc2[nH]ncc2C1(c1cc(N2CCOCC2)cc(C(F)(F)F)c1)C1CCC1 (stereo not shown) [Compound 2.274] | < 10
Cc1n[nH]c2c1C(c1cc(Cl)cc(-c3ccsc3)c1)(C1CC1)C(C#N)=C(N)O2 (stereo not shown) [Compound 2.275] | < 10
Cc1n[nH]c2c1C(c1cc(Cl)cc(-c3cccs3)c1)(C1CC1)C(C#N)=C(N)O2 (stereo not shown) [Compound 2.276] | < 1000
Cc1n[nH]c2c1C(c1cccc(C(F)F)c1)(C1CCC1)C(C#N)=C(N)O2 (stereo not shown) [Compound 2.277] | < 10
Cc1n[nH]c2c1C(c1cccc(OC(F)(F)F)c1)(C1CCC1)C(C#N)=C(N)O2 (stereo not shown) [Compound 2.278] | < 10
Cc1n[nH]c2c1C(c1cc(Cl)cc(C(N)=O)c1)(C1CCC1)C(C#N)=C(N)O2 (stereo not shown) [Compound 2.284] | < 10
N#CC1=C(N)Oc2[nH]ncc2C1(c1cc(C#N)cc(C#N)c1)C1CCC1 (stereo not shown) [Compound 2.286] | < 10
CC(C)C1(c2cc(Br)cc(Br)c2)C(C#N)=C(N)Oc2[nH]ncc21 (stereo not shown) [Compound 2.287] | < 10
N#CC1=C(N)Oc2[nH]ncc2C1(c1cc(Cl)cc(Cl)c1)C1(F)CCC1 (stereo not shown) [Compound 2.288] | < 100
Cc1n[nH]c2c1C(c1ccc(Cl)c(OC(F)(F)F)c1)(C1CCC1)C(C#N)=C(N)O2 (stereo not shown) [Compound 2.289] | < 10
N#CC1=C(N)Oc2[nH]ncc2C1(c1ccc(Cl)c(OC(F)(F)F)c1)C1CCC1 (stereo not shown) [Compound 2.290] | < 100
Cc1n[nH]c2c1C(c1cc(Cl)cc(Cl)c1)(C1CC=CC1)C(C#N)=C(N)O2 (stereo not shown) [Compound 2.291] | < 10
COc1c(Cl)cc(C2(C3CCC3)C(C#N)=C(N)Oc3[nH]nc(C)c32)cc1Cl (stereo not shown) [Compound 2.292] | < 10
COc1c(Cl)cc(C2(C3CCC3)C(C#N)=C(N)Oc3[nH]ncc32)cc1Cl (stereo not shown) [Compound 2.293] | < 10
N#CC1=C(N)Oc2[nH]ncc2C1(c1cccc(SC(F)(F)F)c1)C1CCC1 (stereo not shown) [Compound 2.297] | < 100
N#CC1=C(N)Oc2[nH]ncc2C1(c1cc(Cl)cc(I)c1)C1CCC1 (stereo not shown) [Compound 2.298] | < 10
Cc1n[nH]c2c1C(c1cc(Cl)cc(I)c1)(C1CCC1)C(C#N)=C(N)O2 (stereo not shown) [Compound 2.299] | < 10
Cc1n[nH]c2c1C(c1cc(Br)cc(Br)c1)(C1CC=CC1)C(C#N)=C(N)O2 (stereo not shown) [Compound 2.300] | < 10
N#CC1=C(N)Oc2[nH]ncc2C1(c1cc(Br)cc(Br)c1)C1CC=CC1 (stereo not shown) [Compound 2.301] | < 100

SMILES | EC50 [nM]
N#CC1=C(N)Oc2[nH]ncc2C1(c1ccc(C(F)(F)F)c(C(F)(F)F)c1)C1CCC1 (stereo not shown) [Compound 2.302] | < 10
Cc1n[nH]c2c1C(c1ccc(OC(F)(F)F)c(Cl)c1)(C1CCC1)C(C#N)=C(N)O2 (stereo not shown) [Compound 2.303] | < 10
Cc1n[nH]c2c1C(c1cccc(C(C)(F)F)c1)(C1CCC1)C(C#N)=C(N)O2 (stereo not shown) [Compound 2.305] | < 100
Cc1n[nH]c2c1C(c1cc(Br)cc(OC(F)(F)F)c1)(C1CCC1)C(C#N)=C(N)O2 (stereo not shown) [Compound 2.307] | < 10
Cc1n[nH]c2c1C(c1cc(I)cc(I)c1)(C1CCC1)C(C#N)=C(N)O2 (stereo not shown) [Compound 2.308] | < 10
N#CC1=C(N)Oc2[nH]ncc2C1(c1cc(I)cc(I)c1)C1CCC1 (stereo not shown) [Compound 2.309] | < 10
CSc1cccc(C2(C3CCC3)C(C#N)=C(N)Oc3[nH]nc(C)c32)c1 (stereo not shown) [Compound 2.310] | < 10
CSc1cccc(C2(C3CCC3)C(C#N)=C(N)Oc3[nH]ncc32)c1 (stereo not shown) [Compound 2.311] | < 1000
Cc1n[nH]c2c1C(c1cccc([S+](C)[O-])c1)(C1CCC1)C(C#N)=C(N)O2 (stereo not shown) [Compound 2.312] | < 1000
Cc1n[nH]c2c1C(c1cccc(S(C)(=O)=O)c1)(C1CCC1)C(C#N)=C(N)O2 (stereo not shown) [Compound 2.313] | < 1000
C#CCCC1(c2cc(Cl)cc(Cl)c2)C(C#N)=C(N)Oc2[nH]nc(C)c21 (stereo not shown) [Compound 2.314] | < 100
CC(C)C1(c2cc(Cl)cc(C(F)(F)F)c2)C(C#N)=C(N)Oc2[nH]ncc21 (stereo not shown) [Compound 2.315] | < 10
Cc1n[nH]c2c1C(c1cc(Cl)cc(C(F)(F)F)c1)(C(C)C)C(C#N)=C(N)O2 (stereo not shown) [Compound 2.316] | < 10
CC(C)C1(c2cc(Cl)cc(Br)c2)C(C#N)=C(N)Oc2[nH]ncc21 (stereo not shown) [Compound 2.317] | < 10
Cc1n[nH]c2c1C(c1cc(Cl)cc(-c3ccccn3)c1)(C1CCC1)C(C#N)=C(N)O2 (stereo not shown) [Compound 2.318] | < 10
N#CC1=C(N)Oc2[nH]ncc2C1(c1cc(Cl)cc(-c2nccs2)c1)C1CCC1 (stereo not shown) [Compound 2.319] | < 10
Cc1n[nH]c2c1C(c1cc(Cl)cc(-c3nccs3)c1)(C1CCC1)C(C#N)=C(N)O2 (stereo not shown) [Compound 2.320] | < 10
N#CC1=C(N)Oc2[nH]ncc2C1(c1cc(C#N)cc(C(F)(F)F)c1)C1CCC1 (stereo not shown) [Compound 2.321] | < 10
COc1ccc(C2(C(C)C)C(C#N)=C(N)Oc3[nH]ncc32)cc1Br (stereo not shown) [Compound 2.322] | < 10
Cc1n[nH]c2c1C(c1cc(C#N)cc(-c3ccccc3)c1)(C1CCC1)C(C#N)=C(N)O2 (stereo not shown) [Compound 2.323] | < 100
Cc1n[nH]c2c1C(c1cc(Cl)cc(-c3cccnc3)c1)(C1CCC1)C(C#N)=C(N)O2 (stereo not shown) [Compound 2.324] | < 10
Cc1n[nH]c2c1C(c1cc(C#N)cc(-c3cccc(C(F)(F)F)c3)c1)(C1CCC1)C(C#N)=C(N)O2 (stereo not shown) [Compound 2.325] | < 10
Cc1n[nH]c2c1C(c1cc(C#N)cc(-c3ccc(C(F)(F)F)cc3)c1)(C1CCC1)C(C#N)=C(N)O2 (stereo not shown) [Compound 2.326] | < 10
Cc1n[nH]c2c1C(c1cc(C#N)cc(-c3cccc(F)c3)c1)(C1CCC1)C(C#N)=C(N)O2 (stereo not shown) [Compound 2.327] | < 10

Second part, the molecule after the results:

EC50 [nM] | SMILES
< 10 | Cc1n[nH]c2c1C(c1cc(Cl)cc(Oc3ccccc3Cl)c1)(C1CCC1)C(C#N)=C(N)O2 (stereo not shown) [Compound 2.236]
< 10 | Cc1n[nH]c2c1C(c1cc(Cl)cc(Oc3cccc(Cl)c3)c1)(C1CCC1)C(C#N)=C(N)O2 (stereo not shown) [Compound 2.237]
< 10 | COc1cccc(Oc2cc(Cl)cc(C3(C4CCC4)C(C#N)=C(N)Oc4[nH]nc(C)c43)c2)c1 (stereo not shown) [Compound 2.238]
< 10 | Cc1ccc(Oc2cc(Cl)cc(C3(C4CCC4)C(C#N)=C(N)Oc4[nH]nc(C)c43)c2)cc1 (stereo not shown) [Compound 2.240]
< 10 | COc1c(Br)cc(C2(C3CCC3)C(C#N)=C(N)Oc3[nH]nc(C)c32)cc1Br (stereo not shown) [Compound 2.241]
< 10 | Cc1n[nH]c2c1C(c1cc(Cl)c(F)c(Cl)c1)(C1CCC1)C(C#N)=C(N)O2 (stereo not shown) [Compound 2.242]
< 10 | N#CC1=C(N)Oc2[nH]ncc2C1(c1cc(Cl)cc(Cl)c1)C1CCC1 (stereo not shown) [Compound 2.244]
< 10 | Cc1n[nH]c2c1C(c1ccc(Cl)c(Cl)c1)(C1(F)CC1)C(C#N)=C(N)O2 (stereo not shown) [Compound 2.245]
< 10 | N#CC1=C(N)Oc2[nH]ncc2C1(c1cc(Cl)cc(Br)c1)C1CCC1 (stereo not shown) [Compound 2.248]
< 10 | Cc1n[nH]c2c1C(c1cc(Cl)cc(-c3cccc(C(F)(F)F)c3)c1)(C1CCC1)C(C#N)=C(N)O2 (stereo not shown) [Compound 2.249]
< 10 | Cc1n[nH]c2c1C(c1cc(Cl)cc(-c3ccc(C(F)(F)F)cc3)c1)(C1CCC1)C(C#N)=C(N)O2 (stereo not shown) [Compound 2.250]
< 10 | N#CC1=C(N)Oc2[nH]ncc2C1(c1cc(Br)cc(Br)c1)C1CCC1 (stereo not shown) [Compound 2.251]
< 10 | N#CC1=C(N)Oc2[nH]ncc2C1(c1cc(Cl)cc(C(F)(F)F)c1)C1CCC1 (stereo not shown) [Compound 2.252]
< 10 | COc1ccc(C2(C3CCC3)C(C#N)=C(N)Oc3[nH]ncc32)cc1Cl (stereo not shown) [Compound 2.253]
< 10 | COc1ccc(C2(C3CCC3)C(C#N)=C(N)Oc3[nH]ncc32)cc1Br (stereo not shown) [Compound 2.255]
< 10 | Cc1n[nH]c2c1C(c1cc(F)cc(C#N)c1)(C1CCC1)C(C#N)=C(N)O2 (stereo not shown) [Compound 2.258]
< 10 | N#CC1=C(N)Oc2[nH]ncc2C1(c1cc(Br)cc(C(F)(F)F)c1)C1CCC1 (stereo not shown) [Compound 2.259]
< 10 | COc1ccc(C2(C3(F)CC3)C(C#N)=C(N)Oc3[nH]nc(C)c32)cc1Cl (stereo not shown) [Compound 2.260]
< 10 | Cc1n[nH]c2c1C(c1cc(Cl)cc(-c3ccco3)c1)(C1CCC1)C(C#N)=C(N)O2 (stereo not shown) [Compound 2.262]
< 10 | Cc1n[nH]c2c1C(c1cc(Cl)cc(-c3cccs3)c1)(C1CCC1)C(C#N)=C(N)O2 (stereo not shown) [Compound 2.263]
< 10 | Cc1n[nH]c2c1C(c1cccc(OC(F)F)c1)(C1CCC1)C(C#N)=C(N)O2 (stereo not shown) [Compound 2.264]
< 10 | Cc1n[nH]c2c1C(c1ccc(F)c(OC(F)(F)F)c1)(C1CCC1)C(C#N)=C(N)O2 (stereo not shown) [Compound 2.265]
< 10 | Cc1n[nH]c2c1C(c1cc(Cl)cc(OC(F)(F)F)c1)(C1CCC1)C(C#N)=C(N)O2 (stereo not shown) [Compound 2.266]
< 10 | COc1ccc(C2(C3(F)CC3)C(C#N)=C(N)Oc3[nH]nc(C)c32)cc1C(F)(F)F (stereo not shown) [Compound 2.267]
< 10 | Cc1n[nH]c2c1C(c1ccc(N3CCCC3)c(Cl)c1)(C1CCC1)C(C#N)=C(N)O2 (stereo not shown) [Compound 2.268]
< 10 | Cc1n[nH]c2c1C(c1ccc(F)c(C#N)c1)(C1CCC1)C(C#N)=C(N)O2 (stereo not shown) [Compound 2.269]
< 10 | Cc1n[nH]c2c1C(c1cc(Cl)cc(Cl)c1)(C1CC1(F)F)C(C#N)=C(N)O2 (stereo not shown) [Compound 2.270]
